Assay results taken from paper PMC9864848, “A Study of the Interaction between Xanthine Oxidase and Its Inhibitors from Chrysanthemum morifolium Using Computational Simulation and Multispectroscopic Methods” (Metabolites, 2023).
Like-named read-outs stand apart in the source and are kept apart here.

Tests used:
xanthine oxidase = molecular target: T1, xanthine oxidase (Bos taurus, UniProt P80457); test: Xanthine oxidase (XO) inhibitory assay; format: biochemical, Bovine; conditions: read-out: XO inhibition (%)
T1 construct: purchased Roche Diagnostics (Mannheim, Germany)
Procedure: A total of 100 μL of test samples containing dimethyl sulfoxide (100 μg/mL) and 0.1 U/mL xanthine oxidase (100 µL) were added to a 0.05 M potassium phosphate buffer (1.3 mL, pH 7.5). The mixture was then incubated at 25 °C for 10 min. A 1 mL of 0.15 mM xanthine was added into the solution, then incubated at 30 °C for 10 min. […] The percentage of XO inhibition was calculated as follows: Inhibition (%)=Absorbancenegative control−Absorbancesample/Absorbancenegative control×100% Absorbancenegative control = Absorbance of the negative control (without inhibitors) Absorbancesample = Absorbance of the solution containing test samples

XO [1] = molecular target: T2, XO (Bos taurus, UniProt P80457); test: Fluorescence quenching assay of XO; format: binding, Bovine; conditions: pH 7.5; for Kd: Modified Stern-Volmer association constant Ka
T2 construct: purchased Roche Diagnostics (Mannheim, Germany)
Procedure: The assay was carried out by referring to a previous method with slight modifications. […] Titrations were performed manually and mixed carefully. […] The excitation wavelength was set at 280 nm, and the excitation and emission slits were 5 nm. The fluorescence background was corrected by subtracting the relevant blanks corresponding to the potassium phosphate buffer (pH 7.5).
To distinguish the mechanism of quenching various inhibitors on XO, the fluorescence quenching output was analyzed by applying the Stern-Volmer equation [34]: F0/F=1+KSV[Q]=1+Kqτ0[Q] where F0 and F represent the steady-state fluorescence intensities of XO in the absence and presence of the respective inhibitor. KSV is the Stern-Volmer quenching constant, determined from the slope of the linear regression of F0/F against the [Q] plot. [Q] represents the concentration of the inhibitor.
Then, Ka values for the inhibitor-XO complex at three different temperatures were calculated from the linear regression of F0/(F0 − F) against 1/[Q].

XO [2] = conditions: cited from earlier work
XO [3] = molecular target: T2, XO; test: Circular dichroism (CD) analysis of XO secondary structure; parameters: species or system Bovine
Procedure: The analysis was carried out according to a modified method. […] The measurement was performed in potassium phosphate buffer (pH 7.5) at room temperature. […] The JASCO SSE (Secondary Structure Estimation) software was used to analyze the CD spectroscopic data with Reed’s reference to obtain the data of various secondary structures of XO with respective ligands.

[4] = at 100 μg/mL, mean ± SEM, n = 3
[5] = previous study, read-out: IC50 (XO inhibitory effect)
[6] = molar ratio XO:inhibitor 1:5, pH 7.5 (free XO 15.4)
[7] = molar ratio XO:inhibitor 1:5, pH 7.5 (free XO 19.7)
[8] = molar ratio XO:inhibitor 1:5, pH 7.5 (free XO 65.0)
[9] = molar ratio XO:inhibitor 1:10, pH 7.5 (free XO 15.4)
[10] = molar ratio XO:inhibitor 1:10, pH 7.5 (free XO 19.7)
[11] = molar ratio XO:inhibitor 1:10, pH 7.5 (free XO 65.0)

T2 sequence (P80457 whole entry): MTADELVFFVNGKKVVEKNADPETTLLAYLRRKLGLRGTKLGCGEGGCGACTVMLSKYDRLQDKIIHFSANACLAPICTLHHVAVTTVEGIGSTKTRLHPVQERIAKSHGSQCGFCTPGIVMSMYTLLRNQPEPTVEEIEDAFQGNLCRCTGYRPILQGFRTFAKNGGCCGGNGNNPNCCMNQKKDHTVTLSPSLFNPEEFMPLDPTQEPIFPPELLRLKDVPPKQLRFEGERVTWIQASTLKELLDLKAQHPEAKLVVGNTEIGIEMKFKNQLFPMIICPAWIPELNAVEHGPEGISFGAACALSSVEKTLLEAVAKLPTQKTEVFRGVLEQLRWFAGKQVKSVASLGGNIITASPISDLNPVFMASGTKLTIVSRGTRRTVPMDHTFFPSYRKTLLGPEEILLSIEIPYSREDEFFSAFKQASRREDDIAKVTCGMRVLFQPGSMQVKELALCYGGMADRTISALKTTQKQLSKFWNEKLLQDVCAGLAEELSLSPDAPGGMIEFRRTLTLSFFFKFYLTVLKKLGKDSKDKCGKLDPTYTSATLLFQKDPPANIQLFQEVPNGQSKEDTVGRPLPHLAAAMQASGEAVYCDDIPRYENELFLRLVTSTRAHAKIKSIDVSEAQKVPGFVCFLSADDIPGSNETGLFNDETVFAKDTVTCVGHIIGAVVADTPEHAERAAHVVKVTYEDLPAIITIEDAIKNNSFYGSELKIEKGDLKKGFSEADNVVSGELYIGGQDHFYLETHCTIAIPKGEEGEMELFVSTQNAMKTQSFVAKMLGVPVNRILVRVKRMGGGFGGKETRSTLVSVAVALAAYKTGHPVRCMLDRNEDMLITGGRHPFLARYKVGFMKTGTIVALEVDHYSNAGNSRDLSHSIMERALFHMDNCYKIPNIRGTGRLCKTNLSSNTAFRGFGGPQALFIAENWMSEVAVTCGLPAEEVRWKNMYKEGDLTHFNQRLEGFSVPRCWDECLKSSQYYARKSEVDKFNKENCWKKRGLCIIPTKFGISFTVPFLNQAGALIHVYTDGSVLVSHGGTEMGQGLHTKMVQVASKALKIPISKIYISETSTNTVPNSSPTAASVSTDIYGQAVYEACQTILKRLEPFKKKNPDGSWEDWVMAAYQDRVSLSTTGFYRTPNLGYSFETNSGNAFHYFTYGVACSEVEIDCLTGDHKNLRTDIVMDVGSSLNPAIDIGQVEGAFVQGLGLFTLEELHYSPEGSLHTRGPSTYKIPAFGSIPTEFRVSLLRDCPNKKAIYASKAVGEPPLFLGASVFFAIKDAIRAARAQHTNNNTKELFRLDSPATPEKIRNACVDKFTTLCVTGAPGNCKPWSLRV
T1 sequence (P80457 whole entry): as above

Row | inhibition at 100 µg/mL (xanthine oxidase; [4]) | Structure (SMILES) | inhibition at 100 µg/mL (xanthine oxidase) | Quenching constant KSV (XO [1]; 298 K) | Quenching rate constant Kq (XO [1]; 298 K) | Quenching constant KSV (XO [1]; 304 K) | Quenching rate constant Kq (XO [1]; 304 K) | Quenching constant KSV (XO [1]; 310 K) | Quenching rate constant Kq (XO [1]; 310 K) | IC50 (XO [2]; [5]) | Random Coil (%) of XO (XO [3]; [6]) | α-Helix (%) of XO (XO [3]; [7]) | β-Sheet (%) of XO (XO [3]; [8]) | Random Coil (%) of XO (XO [3]; [9]) | α-Helix (%) of XO (XO [3]; [10]) | β-Sheet (%) of XO (XO [3]; [11]) | Kd (XO [1]; 298 K) | Kd (XO [1]; 304 K) | Kd (XO [1]; 310 K) | IC50 (XO [2]; ref 27 (Chang et al.), read-out: IC50 (XO inhibition)) | XO inhibitory potency (in words) (XO [2]; ref 28 (Mohos et al.))
1 | – | Oc1ncnc2[nH]ncc12 [Allopurinol, allopurinol, reference compound] | 96.5 ± 2.4% | – | – | – | – | – | – | – | – | – | – | – | – | – | – | – | – | – | –
2 | 81.9 ± 3.31% | O=c1c(O)c(-c2ccc(O)cc2)oc2cc(O)cc(O)c12 [Kaempferol, kaempferol] | – | 97700 L/mol | 3.489e+13 M⁻¹ s⁻¹ | 396400 L/mol | 1.416e+14 M⁻¹ s⁻¹ | 277900 L/mol | 9.925e+13 M⁻¹ s⁻¹ | 2.18 ± 0.02 µM | 11.2% | 17.1% | 71.7% | 34.2% | 0.0% | 65.8% | – | – | – | – | –
3 | 56.6 ± 1.77% | O=c1cc(-c2ccc(O)cc2)oc2cc(O)cc(O)c12 [Apigenin, apigenin] | – | 130200 L/mol | 4.65e+13 M⁻¹ s⁻¹ | 332400 L/mol | 1.187e+14 M⁻¹ s⁻¹ | 182100 L/mol | 6.504e+13 M⁻¹ s⁻¹ | 3.2 µM | 22.2% | 10.8% | 67.0% | 0.0% | 36.7% | 63.3% | 5.33 µM | 3.5 µM | 4.3 µM | – | –
4 | – | COc1cc(CC(=O)O)ccc1O [Homovanillic acid, homovanillic acid] | 30 ± 2.18% | 49100 L/mol | 1.754e+13 M⁻¹ s⁻¹ | 93100 L/mol | 3.325e+13 M⁻¹ s⁻¹ | 698800 L/mol | 2.4957e+14 M⁻¹ s⁻¹ | – | 0.0% | 36.3% | 63.7% | 27.0% | 5.1% | 67.9% | 5.61 µM | 2.67 µM | 4.15 µM | – | less potent inhibitor of XO

Row | Structure (SMILES) | inhibition at 100 µg/mL (xanthine oxidase; [4]) | inhibition at 100 µg/mL (xanthine oxidase) | Quenching constant KSV (XO [1]; 298 K) | Quenching rate constant Kq (XO [1]; 298 K) | Quenching constant KSV (XO [1]; 304 K) | Quenching rate constant Kq (XO [1]; 304 K) | Quenching constant KSV (XO [1]; 310 K) | Quenching rate constant Kq (XO [1]; 310 K) | IC50 (XO [2]; [5]) | Random Coil (%) of XO (XO [3]; [6]) | α-Helix (%) of XO (XO [3]; [7]) | β-Sheet (%) of XO (XO [3]; [8]) | Random Coil (%) of XO (XO [3]; [9]) | α-Helix (%) of XO (XO [3]; [10]) | β-Sheet (%) of XO (XO [3]; [11]) | Kd (XO [1]; 298 K) | Kd (XO [1]; 304 K) | Kd (XO [1]; 310 K) | IC50 (XO [2]; ref 27 (Chang et al.), read-out: IC50 (XO inhibition)) | XO inhibitory potency (in words) (XO [2]; ref 28 (Mohos et al.))
5 | O=C(O)/C=C/c1ccccc1 [Trans-cinnamic acid, trans-cinnamic acid] | 57.6 ± 6% | – | 180000 L/mol | 6.429e+13 M⁻¹ s⁻¹ | 282300 L/mol | 1.008e+14 M⁻¹ s⁻¹ | 278400 L/mol | 9.943e+13 M⁻¹ s⁻¹ | – | 0.0% | 36.4% | 63.6% | 22.7% | 10.4% | 66.9% | 8.02 µM | 3.62 µM | 3.49 µM | > 200 µM | –
